Reference: publication PMC6450673, “Targeted degradation of aberrant tau in frontotemporal dementia patient-derived neuronal cell models” (eLife, 2019)
“And” between values parts separate entries of the source, which are not always exact repeats. Equal entries are not always repeated.

Experiments:
[1] = tested on: P-tau S396 in A152T neurons; experiment: Western blot of P-tau S396 in A152T neurons; type: cell-based, human; conditions: 24 hr, all concentrations tested, western blot and ELISA
Excerpt: (§1) Cells from individuals carrying the tau risk variant A152T (c.1407G > A; NCBI RefSeq NM_001123066, rs143624519), the autosomal dominant mutation P301L (c.C1907T; NCBI NM_001123066, rs63751273), or age-matched non-mutant WT tau were employed in this study (Figure 2—source data 1). Dermal fibroblasts from the tau-P301L carrier and the healthy individual were generated from a skin biopsy from subjects within the MGH Frontotemporal Disorders Unit as part of the MGH Neurodegeneration Repository. Approval for human subjects’ work was obtained under a Partners/MGH-approved IRB Protocol (#2010P001611/MGH). Fibroblasts were reprogrammed into iPSCs, which were subsequently converted into cortical-enriched neural progenitor cells (NPCs) and differentiated into neuronal cells as previously described ([Almeida et al., 2012]; [Seo et al., 2017]; [Silva et al., 2016]; [Sheridan et al., 2011]) (Silva MC, Manuscript in preparation, 2019). Briefly, cells were cultured in 6-well (Fisher Scientific Corning, Pittsburgh, PA) or 96-well (Fisher Scientific Corning) plates coated with poly-ornithine (20 μg/mL in water, Sigma, St. Louis, MO) and laminin (5 μg/mL in PBS, Sigma) (POL-coated), in DMEM/F12-B27 media [70% DMEM (Gibco, Carlsbad, CA), 30% Ham’s-F12 (Fisher Scientific Corning), 2% B27 (Gibco), 1% penicillin-streptomycin (Gibco)]. Media was supplemented with EGF (20 ng/mL, Sigma), FGF (20 ng/mL, Stemgent, Cambridge, MA) and heparin (5 μg/mL, Sigma), to promote NPC proliferation and expansion. The growth factors were withdrawn to promote neural differentiation for 6 to 8 weeks, with half media change two times per week. Cell lines’ identity was authenticated by SANGER sequencing, karyotyping and ACGH analysis at different stages of culture maintenance from iPSC to NPC. All working cell lines tested negative for mycoplasma contamination.
(§2) Compound treatment in six-well plates was performed in 2 mL media volume by removing 1 mL of conditioned media from the culture and adding 1 mL of new media pre-mixed with the compound at the appropriate 2X concentration, followed by incubation at 37°C for the designated period of time. Compound treatment in 96-well plates was performed in 100 μL media volume by adding compound directly to each well, followed by incubation at 37°C. When testing the effect of drug pre-treatment, the first compound was added as described above for the period of time needed, and then QC-01–175 was added directly onto the media without media exchange.
(§3) Neurons differentiated in six-well plates for 6 weeks were washed and collected in PBS, lysed in RIPA buffer (Boston Bio-Products, Boston, MA) supplemented with 2% SDS (Sigma), protease inhibitors cocktail (Roche Complete Mini tablets, Mannheim, Germany), and phosphatase inhibitors cocktail (Sigma), followed by water sonication (Bransonic Ultrasonic Baths, Thomas Scientific, Danbury, CT) and 20,000 g centrifugation for 20 min. Supernatants were transferred to new tubes and total protein concentration was quantified with the Pierce BCA Protein Assay Kit (ThermoFisher Scientific, Carlsbad, CA). Human recombinant tau protein ladder was purchased from Sigma. Electrophoresis were performed with the Novex NuPAGE SDS-PAGE Gel System (Invitrogen, Carlsbad, CA), by running 10 μg of total protein (pre-boiled in SDS-DTT loading buffer, NEB, Ipswich, MA) on pre-cast SDS-PAGE. Gels were transferred onto PVDF membranes (EMD Millipore) using standard procedures. Membranes were blocked in 5% BSA (Sigma) in Tris-buffered saline with Tween-20 (TBST/Biorad, Hercules, CA) for 2 hr, incubated overnight with primary antibody (see antibody section) at 4°C, followed by corresponding HRP-linked secondary antibody incubation (Cell Signaling Technology, Danvers, MA). […]

[2] = target: T1, P-tau S396 in non-mutant control iPSC-derived neurons (Homo sapiens, UniProt P10636); experiment: P-Tau[pS396] ELISA in control neurons 1-3; type: cell-based; conditions: all three control neurons, ELISA, 24 hr, concentrations up to 1 μM
T1 construct: modeling pathogenic tau species without the need for overexpression of heterologous genes; endogenous in cells; host or cells: 8330-8-RC1, MGH2069-RC1, CTR2-L17-RC2 human iPSC-derived neurons
Excerpt: as §1, §2
(§4) Neuronal cells differentiated in six-well plate format for 6 weeks, were collected as described for western blotting, and lysed in ELISA-compatible buffer (Invitrogen FNN0011), supplemented with 1 mM PMSF, protease (Roche) and phosphatase (Sigma) inhibitors cocktails, for 30 min on ice with quick vortexing. Lysates were clarified by centrifugation at 13,000 rpm at 4°C for 10 min. The clear lysates were then transferred to new microfuge tubes and total protein concentration was quantified with the Pierce BCA Protein Assay Kit (ThermoFisher Scientific). ELISA assays were performed according to manufacturer instructions: Human Total Tau ELISA (Invitrogen Kit KHB0041/KHB0042) and P-Tau[pS396] Human ELISA Kit (Invitrogen Kit KHB7031). Data was plotted using GraphPad Prism version 8.0.

[3] = tested on: total tau (TAU5) in P301L neurons; experiment: Western blot of total tau in P301L neurons; type: cell-based, human; conditions: western blot, 1 μM, 24 hr
Excerpt: as §1
Compound treatment in six-well plates was performed in 2 mL media volume by removing 1 mL of conditioned media from the culture and adding 1 mL of new media pre-mixed with the compound at the appropriate 2X concentration, followed by incubation at 37°C for the designated period of time. […]
Neurons differentiated in six-well plates for 6 weeks were washed and collected in PBS, lysed in RIPA buffer (Boston Bio-Products, Boston, MA) supplemented with 2% SDS (Sigma), protease inhibitors cocktail (Roche Complete Mini tablets, Mannheim, Germany), and phosphatase inhibitors cocktail (Sigma), followed by water sonication (Bransonic Ultrasonic Baths, Thomas Scientific, Danbury, CT) and 20,000 g centrifugation for 20 min. Supernatants were transferred to new tubes and total protein concentration was quantified with the Pierce BCA Protein Assay Kit (ThermoFisher Scientific, Carlsbad, CA). […]

[4] = tested on: total tau (TAU5) in tau-P301L patient iPSC-derived neurons; experiment: Human total tau ELISA in P301L neurons; type: cell-based; conditions: P301L neurons; for TAU5 (total tau by ELISA, relative to vehicle-treated): 24 h, replicate values
Excerpt: as §1, §2, §4

[5] = tested on: total tau (TAU5) in A152T neurons; experiment: Western blot of total tau in A152T neurons; type: cell-based, human; conditions: 24 hr, all concentrations tested, western blot and ELISA
Excerpt: as §1, §2, §3

[6] = tested on: P-tau S396 in P301L neurons; experiment: Western blot of P-tau S396 in P301L neurons; type: cell-based, human; conditions: western blot, 1 μM, 24 hr
Excerpt: as §1, §2, §3

T1 sequence (P10636 1-441 isoform P10636-8, stated change not applied): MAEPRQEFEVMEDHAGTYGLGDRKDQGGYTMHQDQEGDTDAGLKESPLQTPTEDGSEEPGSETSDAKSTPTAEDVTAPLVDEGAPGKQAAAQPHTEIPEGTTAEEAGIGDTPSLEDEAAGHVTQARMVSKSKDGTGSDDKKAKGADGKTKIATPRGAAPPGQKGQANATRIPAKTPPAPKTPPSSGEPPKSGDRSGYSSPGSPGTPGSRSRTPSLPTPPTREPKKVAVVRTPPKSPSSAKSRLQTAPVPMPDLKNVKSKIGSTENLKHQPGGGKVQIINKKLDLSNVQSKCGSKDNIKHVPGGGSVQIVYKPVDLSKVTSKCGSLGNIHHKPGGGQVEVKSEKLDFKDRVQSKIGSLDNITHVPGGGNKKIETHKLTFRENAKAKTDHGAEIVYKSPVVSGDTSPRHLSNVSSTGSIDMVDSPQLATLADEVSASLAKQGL

For `O=C(CCc1ccc2c(c1)[nH]c1ccncc12)NCCOCCOCCNc1cccc2c1C(=O)N(C1CCCNC1=O)C2=O` (stereo not shown) [QC-03–075], the “effect on levels of P-tau S396” value [1] was “no effect”, the “degradation of P-tau S396” value [2] was “No significant degradation” and the “reduction in total tau” value [3] was “no effect”. For the same molecule, the “TAU5 (total tau by ELISA, relative to vehicle-treated)” value ([4]; 0.001 μM compound) was 1.36 and 1.29 and 0.81 and 0.64 and 0.98 and 0.94, the “TAU5 (total tau by ELISA, relative to vehicle-treated)” value ([4]; 0.01 μM compound) was 1.08 and 1.03 and 0.64 and 0.51 and 0.78 and 0.75 and the “TAU5 (total tau by ELISA, relative to vehicle-treated)” value ([4]; 0.05 μM compound) was 1.04 and 0.99 and 0.62 and 0.49 and 0.75 and 0.72. For the same molecule, the “TAU5 (total tau by ELISA, relative to vehicle-treated)” value ([4]; 0.1 μM compound) was 0.98 and 0.93 and 0.58 and 0.46 and 0.71 and 0.68, the “TAU5 (total tau by ELISA, relative to vehicle-treated)” value ([4]; 0.5 μM compound) was 1.24 and 1.35 (2×) and 1.15 and 0.91 and 0.94 and the “TAU5 (total tau by ELISA, relative to vehicle-treated)” value ([4]; 1 μM compound) was 1.01 and 1.13 and 1.02 and 0.81 and 1.24 and 1.19. The “TAU5 (total tau by ELISA, relative to vehicle-treated)” value ([4]; 10 μM compound) was 1.05 and 1.00 and 0.62 and 0.49 and 0.76 and 0.73, the “effect on tau levels” value ([4]; ELISA, 24 hr) was “minimal effect” and the “effect on levels of total tau” value [5] was “no significant effect”. The “reduction of P-tau S396” value [6] was “no effect”.
